The values that follow come from patent publication US20070248629A1, “PHARMACEUTICAL FORMULATIONS FOR IONTOPHORETIC DRUG DELIVERY” (priority 2006, published 2007).

A short description of data set [1]: Soluble acyclovir in acyclovir sodium gels by centrifugation and HPLC. To be noted: for soluble species contributing to soluble acyclovir: 88 mole % sodium hydroxide, based on base charge / calculated by difference. The source says:
The presence or absence of a pellet was noted and an aliquot of the supernatant was removed for dilution and analysis by HPLC.
(§1) Essentially the same values are obtained from the propylene glycol/water formulations. […] The observed pH of the 88% neutralized solutions is weakly affected by the cosolvent to water ratio.

A short description of data set [2]: physchem. To be noted: pH 11.
From the text: as §1

A short description of data set [3]: physchem.
For data set [4] the following is noted: pH 7; cited from earlier work.
A short description of data set [5]: Solubility of acyclovir and sodium acyclovir in water and cosolvent mixtures. The note with it: propylene glycol/water solution, aqueous with cosolvent or surfactant or cyclodextrin.

Values after ≈ are worked out from the molar mass of the structure shown.

In general, pKa refers to the negative logarithm of the acid dissociation constant. Read a high pKa as a group that holds its proton tightly. One may read the solubility as the concentration that dissolves in the medium under given conditions. Take `Nc1nc2c(ncn2COCCO)c(=O)[nH]1` [acyclovir]: the “soluble species contributing to soluble acyclovir” value in data set [1] (glycerin solutions, listed as neutral acyclovir) is recorded as 0.3%. Also, in data set [1] (partial neutralization (88 mole % sodium hydroxide), glycerin solutions), the “soluble acyclovir (total)” value is reported as 5.3%. The compound further returned a pKa in “physchem [2]” of 9.8. In addition, the solubility turned out to be 3000 µg/mL (≈ 13.3 mM) in “physchem [3]” (pH 7, aqueous with cosolvent or surfactant or cyclodextrin) and 3000 µg/mL (≈ 13.3 mM) in data set [5]. Moreover, in data set [4], the solubility in water is 1300 µg/mL (≈ 5.77 mM).
Turning to `Nc1nc2c(ncn2COCCO)c(=O)[nH]1` [sodium acyclovir], in data set [1] (glycerin solutions), the “soluble species contributing to soluble acyclovir” value is given as 5.0%. The “solubility in gels with complete neutralization” value in data set [1] (105 and 116 mole % sodium hydroxide) is “greater than 5.7 weight percent”. Further, in the data set “physchem [3]” (water), the solubility is greater than 100000 µg/mL.
